Six compounds from patent US10577367B2, “IRAK4 inhibiting agents” (BIOGEN MA INC., priority 2014, dated 2020) can be followed below.

For orientation: pIC50 means the negative decadic logarithm of the IC50, by convention in mol/L. Read a high pIC50 as a low IC50.

pIC50: −log10 of the molar value. Where only a bound is given, the exact number is not on record here.

IRAK4, sequence (Q9NWZ3 whole entry, species assumed): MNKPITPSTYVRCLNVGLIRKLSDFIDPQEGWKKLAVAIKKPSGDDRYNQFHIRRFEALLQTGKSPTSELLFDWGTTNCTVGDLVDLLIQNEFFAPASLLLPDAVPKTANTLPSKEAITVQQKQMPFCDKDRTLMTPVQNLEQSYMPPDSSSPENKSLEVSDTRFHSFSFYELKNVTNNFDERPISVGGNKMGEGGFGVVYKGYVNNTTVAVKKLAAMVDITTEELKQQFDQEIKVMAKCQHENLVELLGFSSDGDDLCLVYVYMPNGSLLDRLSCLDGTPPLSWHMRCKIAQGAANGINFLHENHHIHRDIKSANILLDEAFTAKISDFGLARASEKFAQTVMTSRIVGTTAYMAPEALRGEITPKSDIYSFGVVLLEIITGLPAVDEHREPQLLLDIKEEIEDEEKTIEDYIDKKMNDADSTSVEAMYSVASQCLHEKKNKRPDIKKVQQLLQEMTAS

This assay addresses IRAK4 (Homo sapiens (Human), UniProt Q9NWZ3). In words: IRAK-4 AlphaScreen biochemical kinase assay. As to conditions: 1 nM IRAK4, 1 mM ATP, 3.5 h at RT. The procedure:
The biochemical assay is in a AlphaScreen format. The kinase reaction is based on the IRAK-4 phosphorylation of a biotin labeled peptide. The phosphopeptide is incubated with anti-phosphothreonine antibody as well as streptavidin- and protein A-coated beads. Binding of the protein-A coated beads to the antibody and the streptavidin beads to the peptide, leads to an energy transfer from one bead to the other, ultimately producing a luminescent/fluorescent signal.
The compounds described herein were tested for in the above biochemical assay.
(Bead proximity is the source of the signal in Alpha formats.)
Consider `CCC[C@H](N)c1cccc(-c2cc(C3=CCN(C)CC3)c3cnn(-c4cccc(CO)n4)c3c2)n1` [Example 423, (S)-(6-(6-(6-(1-aminobutyl)pyridin-2-yl)-4-(1-methyl-1,2,3,6-tetrahydropyridin-4-yl)-1H-indazol-1-yl)pyridin-2-yl)methanol], for which the pIC50 was above 7.00.

`N#Cc1cc(-c2cncc(NC(=O)C(F)(F)F)c2)cc2c1cnn2-c1cccc(C(F)(F)F)n1` [Example 208, N-(5-(4-cyano-1-(6-(trifluoromethyl)pyridin-2-yl)-1H-indazol-6-yl)pyridin-3-yl)-2,2,2-trifluoroacetamide] had a pIC50 below 5.00.

Compound `O=C1CCCc2ccc(-c3ccc4cnn(-c5cccc(C(F)(F)F)n5)c4c3)nc21` [Example 212, 2-(1-(6-(trifluoromethyl)pyridin-2-yl)-1H-indazol-6-yl)-6,7-dihydroquinolin-8(5H)-one] gave a negative logarithm of the IC50 (pIC50) below 5.00.

As for `CCC(N)c1cccc(-c2ccc3cnc(-c4cccc(C)n4)n3c2)n1` (stereo not drawn) [Example 275, 1-(6-(3-(6-methylpyridin-2-yl)imidazo[1,5-a]pyridin-6-yl)pyridin-2-yl)propan-1-amine], the pIC50 is above 7.00.

As for `CCC[C@H](N)c1cccc(-c2cc(N3CCCCC3)c3cnn(-c4cccc(CO)n4)c3c2)n1` [Example 324, (S)-(6-(6-(6-(1-aminobutyl)pyridin-2-yl)-4-(piperidin-1-yl)-1H-indazol-1-yl)pyridin-2-yl)methanol], the negative logarithm of the IC50 (pIC50) was above 7.00.

In the case of `CCCC(N)c1cccc(-c2ccc3cnc(-c4cccc(C)n4)n3c2)n1` (stereo not drawn) [Example 276, 1-(6-(3-(6-methylpyridin-2-yl)imidazo[1,5-a]pyridin-6-yl)pyridin-2-yl)butan-1-amine], the pIC50 was above 7.00.
